EP2147919A1, “Heterocyclic substituted amides, method for their manufacture and their use as herbicides” (Bayer CropScience Aktiengesellschaft, priority 2008, dated 2010)

Key:
STEME [1] = assay: Herbicidal action pre-emergence (greenhouse pot test, visual rating); type: in vivo, Stellaria media; details: Vorauflauf, 1280 g/ha, visual rating after 3 weeks vs untreated controls
From the text: (§1) Samen von mono- bzw. dikotylen Unkraut- bzw. Kulturpflanzen werden in Holzfasertöpfen in sandiger Lehmerde ausgelegt und mit Erde abgedeckt. Die in Form von benetzbaren Pulvern (WP) oder als Emulsionskonzentrate (EC) formulierten erfindungsgemäßen Verbindungen werden dann als wäßrige Suspension bzw. Emulsion mit einer Wasseraufwandmenge von umgerechnet 600 bis 800 l/ha unter Zusatz von 0,2% Netzmittel auf die Oberfläche der Abdeckerde appliziert.
(§2) Nach der Behandlung werden die Töpfe im Gewächshaus aufgestellt und unter guten Wachstumsbedingungen für die Testpflanzen gehalten. Die visuelle Bonitur der Schäden an den Versuchspflanzen erfolgt nach einer Versuchszeit von 3 Wochen im Vergleich zu unbehandelten Kontrollen (herbizide Wirkung in Prozent (%): 100% Wirkung = Pflanzen sind abgestorben, 0 % Wirkung = wie Kontrollpflanzen).

VIOTR [2] = assay: as above; type: in vivo, Viola tricolor; details: Vorauflauf, 1280 g/ha, visual rating after 3 weeks vs untreated controls
From the text: as §1, §2

VERPE [3] = assay: as above; type: in vivo, Veronica persica; details: Vorauflauf, 1280 g/ha, visual rating after 3 weeks vs untreated controls
From the text: as §1, §2

MATIN [4] = assay: as above; type: in vivo, Matricaria inodora; details: Vorauflauf, 1280 g/ha, visual rating after 3 weeks vs untreated controls
From the text: as §1, §2

VIOTR [5] = assay: Herbicidal action post-emergence (greenhouse pot test, visual rating); type: in vivo, Viola tricolor; details: Nachauflauf, 1280 g/ha, visual rating after ca. 3 weeks vs untreated controls
From the text: (§3) Samen von mono- bzw. dikotylen Unkraut- bzw. Kulturpflanzen werden in Holzfasertöpfen in sandigem Lehmboden ausgelegt, mit Erde abgedeckt und im Gewächshaus unter guten Wachstumsbedingungen angezogen. 2 bis 3 Wochen nach der Aussaat werden die Versuchspflanzen im Einblattstadium behandelt. Die in Form von benetzbaren Pulvern (WP) oder als Emulsionskonzentrate (EC) formulierten erfindungsgemäßen Verbindungen werden dann als wäßrige Suspension bzw. Emulsion mit einer Wasseraufwandmenge von umgerechnet 600 bis 800 l/ha unter Zusatz von 0,2% Netzmittel auf die grünen Pflanzenteile gesprüht. Nach ca. 3 Wochen Standzeit der Versuchspflanzen im Gewächshaus unter optimalen Wachstumsbedingungen wird die Wirkung der Präparate visuell im Vergleich zu unbehandelten Kontrollen bonitiert (herbizide Wirkung in Prozent (%): 100% Wirkung = Pflanzen sind abgestorben, 0 % Wirkung = wie Kontrollpflanzen).

MATIN [6] = assay: as above; type: in vivo, Matricaria inodora; details: Nachauflauf, 1280 g/ha, visual rating after ca. 3 weeks vs untreated controls
From the text: as §3

ABUTH [7] = assay: Herbicidal action pre-emergence (greenhouse pot test, visual rating); type: in vivo, Abutilon theophrasti; details: Vorauflauf, 1280 g/ha, visual rating after 3 weeks vs untreated controls
From the text: as §1, §2

ABUTH [8] = assay: Herbicidal action post-emergence (greenhouse pot test, visual rating); type: in vivo, Abutilon theophrasti; details: Nachauflauf, 1280 g/ha, visual rating after ca. 3 weeks vs untreated controls
From the text: as §3

STEME [9] = assay: as above; type: in vivo, Stellaria media; details: Nachauflauf, 1280 g/ha, visual rating after ca. 3 weeks vs untreated controls
From the text: as §3

AMARE [10] = assay: Herbicidal action pre-emergence (greenhouse pot test, visual rating); type: in vivo, Amaranthus retroflexus; details: Vorauflauf, 1280 g/ha, visual rating after 3 weeks vs untreated controls
From the text: as §1, §2

AMARE [11] = assay: Herbicidal action post-emergence (greenhouse pot test, visual rating); type: in vivo, Amaranthus retroflexus; details: Nachauflauf, 1280 g/ha, visual rating after ca. 3 weeks vs untreated controls
From the text: as §3

VERPE [12] = assay: as above; type: in vivo, Veronica persica; details: Nachauflauf, 1280 g/ha, visual rating after ca. 3 weeks vs untreated controls
From the text: as §3

Log P = type: physicochemical
ALOMY = assay: Herbicidal action pre-emergence (greenhouse pot test, visual rating); type: in vivo, Alopecurus myosuroides; details: Vorauflauf, 1280 g/ha, visual rating after 3 weeks vs untreated controls
From the text: as §1, §2

PHBPU = assay: Herbicidal action post-emergence (greenhouse pot test, visual rating); type: in vivo, Pharbitis purpurea; details: Nachauflauf, 1280 g/ha, visual rating after ca. 3 weeks vs untreated controls
From the text: as §3

Schadpflanzen = assay: Herbicidal action pre-emergence, summary over the weed spectrum; type: in vivo; details: Vorauflaufverfahren, Aufwandmenge von 1.28 kg und weniger Aktivsubstanz pro Hektar
From the text: as §1, §2

POLCO = assay: Herbicidal action pre-emergence (greenhouse pot test, visual rating); type: in vivo, Polygonum convolvolus; details: Vorauflauf, 1280 g/ha, visual rating after 3 weeks vs untreated controls
From the text: as §1, §2

SETVI = assay: as above; type: in vivo, Setaria viridis; details: Vorauflauf, 1280 g/ha, visual rating after 3 weeks vs untreated controls
From the text: as §1, §2

logP (Log P) | Compound | herbizide Wirkung STEME (STEME [1]) | herbizide Wirkung VIOTR (VIOTR [2]) | herbizide Wirkung VERPE (VERPE [3]) | herbizide Wirkung VIOTR (VIOTR [5]) | herbizide Wirkung ABUTH (ABUTH [8]) | herbizide Wirkung STEME (STEME [9]) | herbizide Wirkung AMARE (AMARE [10]) | herbizide Wirkung VERPE (VERPE [12]) | further results
– | O=C(NC(c1ccon1)c1ccc(Cl)cc1Cl)c1ccc(Cl)nc1 (stereo not shown) [Beispiel 201] | 100% | 100% | 100% | – | – | – | – | – | –
– | Cc1nn(C)cc1C(=O)NC(c1ccc(Cl)cc1)c1ccon1 (stereo not shown) [Beispiel 265] | 100% | 100% | 100% | 100% | 100% | 100% | 100% | 100% | herbizide Wirkung MATIN (MATIN [4]): 100%; herbizide Wirkung MATIN (MATIN [6]): 80%; herbizide Wirkung ABUTH (ABUTH [7]): 90%; herbizide Wirkung AMARE (AMARE [11]): 100%
1 | COc1ccc(C(NC(=O)c2cnccc2OC)c2ccon2)c(F)c1 (stereo not shown) [Beispiel 189] | – | – | – | – | – | – | – | – | –
2.26 | Cc1cc(OC(C)C)c(C(=O)NC(c2ccc(F)c(F)c2)c2ccon2)c(Cl)n1 (racemic) [Beispiel 174, 2-Chlor-N-[(3,4-difluorphenyl)(isoxazol-3-yl)methyl]-4-isopropoxy-6-methylnicotinamid] | 100% | – | 100% | 80% | 100% | 100% | 100% | 100% | herbizide Wirkung MATIN (MATIN [4]): 80%; herbizide Wirkung ALOMY (ALOMY): 60%; herbizide Wirkung MATIN (MATIN [6]): 90%; herbizide Wirkung ABUTH (ABUTH [7]): 100%; herbizide Wirkung PHBPU (PHBPU): 80%; herbizide Wirkung AMARE (AMARE [11]): 100%
2.63 | Cc1ncc(C(=O)NC(c2ccc(Cl)cc2)c2ccon2)c(C)c1Br (stereo not shown) [Beispiel 131] | – | – | – | – | – | – | – | – | –
– | COc1ccc(C(NC(=O)c2cn(C)nc2C)c2ccon2)c(F)c1 (stereo not shown) [Beispiel 266] | – | – | – | 80% | – | 100% | – | 90% | –
1.8 | COc1ccc(C(NC(=O)c2cnn(C)c2Cl)c2ccon2)c(F)c1 (racemic) [Beispiel 260, 5-Chlor-N-[(2-fluor-4-methoxyphenyl)(isoxazol-3-yl)methyl]-1-methyl-1 H-pyrazol-4-carboxamid] | – | – | – | – | – | – | – | – | –
– | Cc1ccc(C(=O)NC(c2ccc(Cl)cc2)c2ccon2)cn1 (stereo not shown) [Beispiel 209] | – | – | – | 80% | 80% | 100% | – | – | –
– | Cn1nc(C(F)(F)F)c(C(=O)NC(c2ccc(Cl)cc2)c2ccon2)c1Cl (stereo not shown) [Beispiel 262] | 100% | 100% | 100% | – | – | – | 100% | – | herbizide Wirkung MATIN (MATIN [4]): 90%
2.51 | Cc1cc(OC(C)C)c(C(=O)NC(c2cnc(Cl)c(Cl)c2)c2ccon2)c(Br)n1 (stereo not shown) [Beispiel 224] | – | – | – | – | – | – | – | – | –
2.18 | COc1ccc(C(NC(=O)c2c(OC(C)C)cc(C)nc2Cl)c2ccon2)c(F)c1 (stereo not shown) [Beispiel 187] | – | – | – | – | – | – | – | – | –
– | Cc1cc(Cl)c(C(=O)NC(c2ccc(F)c(F)c2)c2ccon2)c(OC(C)C)n1 (stereo not shown) [Beispiel 164] | 90% | 100% | 100% | 80% | 90% | – | 100% | 80% | herbizide Wirkung PHBPU (PHBPU): 80%; herbizide Wirkung POLCO (POLCO): 100%; herbizide Wirkung AMARE (AMARE [11]): 100%
3.44 | COc1cccc(C(NC(=O)c2nsc(Cl)c2Cl)c2ccon2)c1 (racemic) [Beispiel 306, 4,5-Dichlor-N-[(3-methoxyphenyl)(isoxazol-3-yl)methyl]isothiazol-3-carboxamid] | – | – | – | – | – | – | – | – | –
– | COc1ccc(C(NC(=O)c2ccc(C)nc2)c2ccon2)c(F)c1 (stereo not shown) [Beispiel 212] | – | – | – | – | 80% | 100% | – | 80% | herbizide Wirkung AMARE (AMARE [11]): 80%
– | CCCOc1cc(C)nc(Br)c1C(=O)NC(c1ccon1)c1ccc(Cl)cc1Cl (stereo not shown) [Beispiel 160] | 100% | 100% | 100% | – | – | – | 100% | – | herbizide Wirkung MATIN (MATIN [4]): 100%; herbizide Wirkung ABUTH (ABUTH [7]): 100%; herbizide Wirkung SETVI (SETVI): 90%; herbizide Wirkung POLCO (POLCO): 100%

Compound | logP (Log P) | herbizide Wirkung STEME (STEME [1]) | herbizide Wirkung VIOTR (VIOTR [2]) | herbizide Wirkung VERPE (VERPE [3]) | herbizide Wirkung VIOTR (VIOTR [5]) | herbizide Wirkung ABUTH (ABUTH [8]) | herbizide Wirkung STEME (STEME [9]) | herbizide Wirkung AMARE (AMARE [10]) | herbizide Wirkung VERPE (VERPE [12]) | further results
CCCOc1cc(C)nc(Br)c1C(=O)NC(c1ccc(Cl)cc1)c1ccon1 (stereo not shown) [Beispiel 35] | 2.63 | – | – | – | – | – | – | – | – | herbizide Wirkung gegen Schadpflanzen (Schadpflanzen): sehr gute herbizide Wirkung
